Results on 68 molecules are retold here after PubChem BioAssay AID504897 (Southern Research Specialized Biocontainment Screening …, 2011).

The source made the active and inactive calls. No rule for the calls is given here. A value given as a limit tells only on which side of the number the result lay.

The nature of assay [1]: M. tuberculosis growth inhibition, dose response, H37Rv, 7H9 media, purified and synthesized compounds, set 6 (AID 504897). The following applies: Mycobacterium tuberculosis H37Rv growth inhibition, 7H9 medium; at 100 µM (top of the series).
Assay [2] relates to Mycobacterium tuberculosis H37Rv growth inhibition, 7H9 medium. The assay is described as above. Particulars: for IC50: measured here: IC50 of Mtb growth inhibition.

As for `COc1cccc(NC(=O)CSc2nc3c(c(=O)[nH]2)CCC3)c1`, the inhibition in assay [1] is -0.07% (inactive).
The same measure, in the same setting: in the case of `COC(=O)C(Nc1nc(SCC(=O)NC2CCCCC2)nc2ccccc12)c1ccccc1` (centres undefined) it was 9.91% (inactive).
Take `CCCCNC(=O)CSc1nc2ccccc2c(=O)[nH]1`: in assay [2], the IC90 is 1210 nM and the IC50 is 55 nM.
As for `Cc1[nH]c(=S)[nH]c(=O)c1C`, the inhibition in assay [1] is -0.2% (inactive).
Take `Cc1nc(SCC(=O)NC2CCCCC2)[nH]c(=O)c1C`: in assay [2], the 90% effect concentration (IC90) was 1320 nM and the IC50 is less than 6 nM.
The like results for `Cc1cc(C)n2nc(N)c(N=Nc3ccccc3)c2n1` were, in that order, 6010 nM and 4940 nM.
For `Cc1cccc(-c2oc3ccc(-c4ccc5c(c4)OCO5)cc3c2C#Cc2cncn2C)c1` the same measures were 2980 nM and 2410 nM.
Regarding `O=C(CSc1ccccn1)NC1CCCCC1`, the IC50 in assay [2] was more than 100000 nM.
`CC1CCN(C(=O)CSc2nc3ccccc3c(=O)[nH]2)CC1`: the inhibition in assay [1] was 3.89% (inactive).
On the same count and under the same terms, the value for `CCC(Sc1nc2ccccc2c(=O)[nH]1)C(=O)Nc1cccc(OC)c1` (centres undefined) was 4.58% (inactive).
In assay [2], `NC(=O)c1cnccn1` came in with an IC50 of more than 100000 nM.
As to `O=C(CSc1nc2ccccc2c(=O)[nH]1)N1CCOCC1`, in assay [1], the inhibition was 6.74% (inactive).
As to `CC(C)CCNC(=O)CSc1nc2c(c(=O)[nH]1)CCC2`, in assay [2], the concentration for an effect of 90% (IC90) is 947 nM and the IC50 came out at 722 nM.
As for `COC(=O)C(C)Oc1ccc(Cc2ncc(C(F)(F)F)cc2Cl)cc1` (centres undefined), in assay [2], the IC90 is 6750 nM and the IC50 amounted to 3500 nM.
In turn, `CCCc1cc(C(N)=S)ccn1` displayed an IC50 in assay [2] of 7240 nM.
For `COc1c(N2CCNC(C)C2)c(F)cc2c(=O)c(C(=O)O)cn(C3CC3)c12` (centres undefined), in assay [2], the IC90 is 162 nM and the IC50 is 113 nM.
The like results for `CC(C)CNC(=O)CSc1nc2ccccc2c(=O)[nH]1` were, in that order, 432 nM and 173 nM.
The like results for `CC(C)NC(=O)CSc1nc2ccccc2c(=O)[nH]1` were, in that order, 14200 nM and 5840 nM.
The like results for `CCOc1ccc(-c2cc(C)[n+](CCc3ccc(OC)c(OC)c3)c(-c3ccc(OCC)cc3)c2)cc1` were, in that order, 954 nM and 568 nM.
As to `CN1CCC(NC(=O)CSc2nc3ccccc3c(=O)[nH]2)CC1`, the inhibition in assay [1] was -4.24% (inactive).
On to `c1ccc(/N=C2\N=C(Nc3ccccn3)c3ccccc32)nc1`, for which, in assay [2], the IC90 was 1760 nM and the IC50 is 1180 nM.
Take `Cc1cnc(SCC(=O)NC2CCCCC2)[nH]c1=O`: the inhibition in assay [1] was 0.5% (inactive).
As for `NC(=O)CSc1nc2ccccc2c(=O)[nH]1`, the inhibition in assay [1] is 3.52% (inactive).
The same measure, in the same setting: in the case of `Nc1cc(=O)[nH]c(SCC(=O)NC2CCCCC2)n1` it was -4.53% (inactive).
Regarding `Cc1ccc(NC(=O)CSc2nc3ccccc3c(=O)[nH]2)cc1Cl`, the inhibition in assay [1] is -4.35% (inactive).
In the case of `O=C(CSc1nc2c(c(=O)[nH]1)CCCC2)NC1CCCCC1`, in assay [2], the IC90 is 81 nM and the IC50 was less than 37 nM.
Regarding `Cc1nc(SCc2ccccc2Cl)[nH]c(=O)c1C`, in assay [1], the inhibition is -10.5% (inactive).
Regarding `NNC(=O)c1ccncc1`, in assay [2], the IC90 was 294 nM and the IC50 came to 175 nM.
For the molecule `CCOC1OC(=O)C(Cl)=C1Nc1ccccc1C` (centres undefined), in assay [2], the IC90 was 5920 nM and the IC50 turned out to be 3220 nM.
Consider `Cc1nc(SCC(=O)N(C)c2ccccc2)[nH]c(=O)c1C`, for which the inhibition in assay [1] is -3.37% (inactive).
Same read-out and setting: the value for `Cc1c[nH]c(=S)[nH]c1=O` was -0.98% (inactive); that for `Cc1cc(=O)[nH]c(SCC(=O)NC2CCCCC2)n1` was 0.97% (inactive).
Regarding `CC1CCN(C(=O)C2CCN(c3nnc(-n4cccc4)s3)CC2)CC1`, in assay [2], the IC90 is 3900 nM and the IC50 amounted to 2750 nM.
For `CN[C@@H]1[C@H](O[C@H]2[C@H](O[C@H]3[C@H](O)[C@@H](O)[C@H](N=C(N)N)[C@@H](O)[C@@H]3N=C(N)N)O[C@@H](C)[C@]2(O)C=O)O[C@@H](CO)[C@H](O)[C@H]1O` the same measures were 176 nM and 101 nM.
Take `CC(C)N=c1cc2n(-c3ccc(Cl)cc3)c3ccccc3nc-2cc1Nc1ccc(Cl)cc1`: in assay [2], the IC90 is 396 nM and the IC50 was 67 nM.
With `CC(Sc1nc2ccccc2c(=O)[nH]1)C(=O)NC1CCCCC1` (centres undefined), the inhibition in assay [1] is -1.17% (inactive).
The same measure, in the same setting: the value for `CCSc1nc(C)c(C)c(=O)[nH]1` was 0.94% (inactive).
Consider `O=C(CSc1nc2ccccc2c(=O)[nH]1)NC1CCCC1`, for which, in assay [2], the IC90 is 535 nM and the IC50 was determined as 89 nM.
For `Cc1cc(Br)ccc1NC(=O)c1cnc(N2CCN(c3ccccn3)CC2)c2ccccc12` the same measures were 2790 nM and 887 nM.
Take `O=C(CSc1ncccn1)NC1CCCCC1`: the inhibition in assay [1] was -0.52% (inactive).
For `Cc1ccc(NC(=O)COC(=O)CCc2c[nH]c3ccccc23)cc1[N+](=O)[O-]`, in assay [2], the IC90 is 4370 nM and the half-inhibitory concentration (IC50) was 1340 nM.
Regarding `O=c1[nH]c(=S)[nH]c2ccccc12`, in assay [1], the inhibition is -4.69% (inactive).
Still for that read-out and setting: the value for `Cc1cc(=O)[nH]c(=S)[nH]1` was -3.5% (inactive); that for `CCOC(=O)CSc1nc(C)c(C)c(=O)[nH]1` was 3.07% (inactive).
As for `CC(C)CCNC(=O)CSc1nc2ccccc2c(=O)[nH]1`, in assay [2], the IC90 is less than 136 nM and the IC50 is less than 81 nM.
As for `COc1cccc(NC(=O)CSc2nc3ccccc3c(=O)[nH]2)c1`, the inhibition in assay [1] is -3.46% (inactive).
On to `CNC(=O)CSc1nc2ccccc2c(=O)[nH]1`, for which, in assay [2], the IC90 is 68100 nM and the IC50 stood at 43900 nM.
Turning to `O=c1[nH]c(SCc2ccccc2Cl)nc2c1CCCC2`, in assay [1], the inhibition is 1.13% (inactive).
Molecule `COC(=O)c1ccc(CNc2c(N3CCCC3)c(=O)c2=O)cc1` yielded an IC50 in assay [2] of more than 100000 nM.
In the case of `Cc1nc(SCC(=O)NCCC(C)C)[nH]c(=O)c1C`, in assay [2], the IC90 was 8750 nM and the IC50 is 4900 nM.
Take `Cn1c(SCC(=O)NC2CCCCC2)nc2ccccc2c1=O`: the inhibition in assay [1] was -2.65% (inactive).
As for `CC[N+](C)(CC)CCCCOc1ccc2c(c1)C(=O)c1cc(OCCCC[N+](C)(CC)CC)ccc1-2`, in assay [2], the IC90 was 2650 nM and the IC50 amounted to 1770 nM.
The like results for `O=C(CSc1nc2ccccc2c(=O)[nH]1)NCc1ccc(Cl)cc1` were, in that order, 973 nM and 554 nM.
With `CCSc1nc2ccccc2c(=O)[nH]1`, in assay [1], the inhibition is -6.01% (inactive).
In turn, `Cc1[nH]c2ccccc2c1C(=O)COC(=O)c1ccc([N+](=O)[O-])s1` registered an IC50 in assay [2] of more than 67400 nM.
Regarding `CCC(Sc1nc2c(c(=O)[nH]1)CCC2)C(=O)Nc1cccc(OC)c1` (centres undefined), the inhibition in assay [1] was 1.68% (inactive).
As to `Cc1cccc(/C=C/C(=O)c2ccc([N+](=O)[O-])o2)c1`, in assay [2], the IC90 was 938 nM and the IC50 is 495 nM.
In the case of `O=C(CSc1nccc(=O)[nH]1)NC1CCCCC1`, the inhibition in assay [1] is 0.9% (inactive).
Still for that read-out and setting: the value for `CN(C(=O)CSc1nc2ccccc2c(=O)[nH]1)C1CCCCC1` was -1.28% (inactive).
As to `NC[C@H]1O[C@H](O[C@H]2[C@H](O)[C@@H](O[C@H]3O[C@H](CO)[C@@H](O)[C@H](N)[C@H]3O)[C@H](N)C[C@@H]2N)[C@H](O)[C@@H](O)[C@@H]1O`, in assay [2], the IC90 is 2120 nM and the IC50 amounted to 1390 nM.
Take `Nc1c(C(=O)NC2CCCCC2)nsc1C(=O)OCC(=O)NC1CCCCC1`: in assay [2], the IC90 was 7450 nM and the IC50 was 2130 nM.
For `Cc1ccc(C(=O)N/N=C(/CC(=O)c2cccs2)C(F)(F)F)cc1`, in assay [2], the IC90 was 3100 nM and the IC50 was 1930 nM.
For `Cc1nc(SCC(=O)NC2CCCC2)[nH]c(=O)c1C` the same measures were 8890 nM and 5120 nM.
For `Cc1nc(SCC(N)=O)[nH]c(=O)c1C`, the inhibition in assay [1] is -2.86% (inactive).
On to `COc1ccc(NC(=O)CSc2nc3ccccc3c(=O)[nH]2)cc1`, for which the inhibition in assay [1] is 1.71% (inactive).
The same measure, in the same setting: the value for `CN(C)C(=O)CSc1nc2ccccc2c(=O)[nH]1` was 0.96% (inactive); that for `CCC(Sc1nc2ccccc2c(=O)[nH]1)C(=O)NC1CCCCC1` (centres undefined) was 1.35% (inactive).
In the case of `O=C(CSc1nc2c(c(=O)[nH]1)CCC2)NC1CCCCC1`, in assay [2], the IC90 was less than 69 nM and the IC50 was less than 34 nM.
